Measurements published in patent US5364848A, “Substituted cephalosporin sulfones as anti-inflammatory and antidegenerative agents” (Merck & Co., Inc., priority 1992, dated 1994).
Converted amounts (≈) assume the structure as drawn. Read-outs that look alike come from different tables or passages of the source.

Target: T1, Human Polymorphonuclear Leukocyte Elastase (Homo sapiens, UniProt P08246)
T1 sequence (P08246 30-247 limits assumed): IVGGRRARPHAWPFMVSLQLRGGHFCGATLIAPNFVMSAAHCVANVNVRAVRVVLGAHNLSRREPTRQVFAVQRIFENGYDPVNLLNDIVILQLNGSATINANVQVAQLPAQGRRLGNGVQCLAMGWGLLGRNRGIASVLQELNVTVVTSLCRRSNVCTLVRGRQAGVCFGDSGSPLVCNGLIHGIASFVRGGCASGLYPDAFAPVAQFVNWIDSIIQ
Assay: biochemical
Method: Protocol--Enzyme Assays for the Inhibition of Human Polymorphonuclear Leukocyte Elastase Via Hydrolysis of N-t-Boc-alanyl-alanyl-prolylalanine-p-nitroanilide Reagents:
0.05M TES (N-tris[hydroxymethyl]methyl-2-amino-ethanesulfonic acid) Buffer, pH 7.5.
0.2 mMN-t-Boc-alanyl -alanyl -prolyl-alanine-p-nitroanilide (Boc-AAPAN).
To prepare substrate, the solid (m.w. 550) was first dissolved in 10.0 ml DMSO. Buffer at pH 7.5 was then added to a final volume of 100 ml.
Crude extract of human polymorphonuclear leukocytes (PMN) containing elastase activity.
Inhibitors (cephalosporin sulfone esters) to be tested dissolved in DMSO just before use.
To 1.0 ml of 0.2 mM Boc-AAPAN in a cuvette, 0.01-0.1 ml of DMSO with or without inhibitor was added. After mixing, a measurement was taken at 410 mμ to detect any spontaneous hydrolysis due to presence of test compound. 0.05 Milliliters of PMN extract was then added and the ΔOD/min at 410 mμ was measured and recorded. Beckman model 35 spectrophotometer was used.
The elastase activity in the crude PMN extract may vary from one preparation to another. A control of each new batch is run, and the volume added in the assay procedure is adjusted according to activity.

[1] = Table IIa, 50% inhibition of the enzyme activity 2 minutes after zero time, crude PMN extract, pH 7.5, 0.2 mM Boc-AAPAN, read-out: ED50 (the source's name) (converted)
[2] = Table II, 50% inhibition of the enzyme activity 2 minutes after zero time, crude PMN extract, pH 7.5, 0.2 mM Boc-AAPAN, read-out: ED50 (the source's name) (converted)
[3] = Table II, 50% inhibition of the enzyme activity 2 minutes after zero time, crude PMN extract, pH 7.5, 0.2 mM Boc-AAPAN

SMILES | IC50 [2] | also measured
CC(=O)OCC1=C(C(=O)OC(C)(C)C)N2C(=O)C(Cl)(Cl)C2S(=O)(=O)C1 (stereo not shown) |  | IC50 [1]: 241 nM
CO[C@H]1C(=O)N2C(C(=O)OC(C)(C)C)=C(COC(C)=O)C(C)S(=O)(=O)[C@H]12 (stereo partly shown) [R1=OCH3, M=CH2OCOCH3, B=OtBu, Q=CH3] | 77 nM | 
CO[C@H]1C(=O)N2C(C(=O)OC(C)(C)C)=C(CS(=O)(=O)c3ccccc3)CS(=O)(=O)C12 (single isomer, unassigned) [R1=OCH3, M=CH2SO2.phi., B=OtBu, Q=H, t-Butyl 3-phenylsulfonylmethyl-7α-methoxy-8-oxo-5-thia-1-azabicyclo[4.2.0]oct-2-ene-2-carboxylate-5,5-dioxide] |  | IC50: 437 nM
CO[C@H]1C(=O)N2C(C(=O)OC(C)(C)C)=C(C(=O)O)CS(=O)(=O)C12 (stereo partly drawn) [R1=OCH3, M=COOH, B=OtBu, Q=H, t-Butyl 3-hydroxycarbonyl-7α-methoxy-8-oxo-5-thia-1-azabicyclo[4.2.0]oct-2-ene-2-carboxylate-5,5 dioxide] | 28.8 nM | 
CO[C@H]1C(=O)N2C(C(=O)OC(C)(C)C)=C(COC(=O)CCC(=O)O)CS(=O)(=O)C12 (stereo partly drawn) [R1=OCH3, M=CH2OCOCH2CH2COOH, B=OtBu, Q=H, t-Butyl 3-(3-[hydroxycarbonyl]Propanoyloxymethyl)-7α-methoxy-8-oxo-5-thia-1-azabicyclo[4.2.0]oct-2-ene-2-carboxylate-5,5-dioxide] | 231 nM | 
CO[C@H]1C(=O)N2C(C(=O)OC(C)(C)C)=C(COC(C)=O)CS(=O)(=O)[C@H]12 [R1=OCH3, M=CH2OCOCH3, B=OtBu, Q=H, t-Butyl-3-acetyloxymethyl-7α-methoxy-8-oxo-5-thia-1-azabicyclo[4.2.0]oct-2-ene-2-carboxylate-5,5-dioxide] | 1330 nM | 
CC(=O)OCC1=C(C(=O)OC(C)(C)C)N2C(=O)[C@H](F)[C@H]2S(=O)(=O)C1 [R1=F, M=CH2OCOCH3, B=OtBu, Q=H, t-Butyl 3-acetyloxymethyl-7α-fluoro-8-oxo-5-thia-1-azabicyclo[4.2.0]oct-2-ene-2-carboxylate-5,5-dioxide] |  | IC50: 82.6 nM
CO[C@H]1C(=O)N2C(C(=O)OC(C)(C)C)=C(COC(C)=O)C(CSc3ccccc3)S(=O)(=O)[C@H]12 (stereo partly drawn) [t-Butyl 3-acetyloxymethyl-7α-methoxy-4-phenylthiomethyl-8-oxo-5-thia-1-azabicyclo[4.2.0]oct-2-ene-2-carboxylate-5,5-dioxide] | 60.3 nM | 
COC1C(=O)N2C(C(=O)OC(C)(C)C)=C(CSc3cn[nH]n3)CS(=O)(=O)C12 (stereo not shown) [R1=OCH3, M=drawing 44, B=OtBu, Q=H] | 1440 nM | 
CC(=O)OCC1=C(C(=O)OCc2ccccc2)N2C(=O)C(OC(C)=O)C2S(=O)(=O)C1 (stereo not shown) [R1=OCOCH3, M=CH2OCOCH3, B=OCH2.phi., Q=H] | 914 nM | 
COC1C(=O)N2C(C(=O)OC(C)(C)C)=C(CSc3nc[nH]n3)CS(=O)(=O)C12 (stereo not shown) [R1=OCH3, M=drawing 39, B=OtBu, Q=H] | 2160 nM | 
CCOC(=S)SCC1=C(C(=O)OC(C)(C)C)N2C(=O)C(OC)C2S(=O)(=O)C1 (stereo not shown) [R1=OCH3, M=drawing 40, B=OtBu, Q=H] | 1600 nM | 
COC1C(=O)N2C(C(=O)OCC=C(C)C)=C(COC(C)=O)CS(=O)(=O)C12 (stereo not shown) | 2580 nM | 
COC1C(=O)N2C(C(=O)OCC(=O)C(C)(C)C)=C(COC(C)=O)CS(=O)(=O)C12 (stereo not shown) [R1=OCH3, M=CH2OCOCH3, B=OCH2COtBu, Q=H] | 47.9 nM | 
COC(=O)C1=C(COC(C)=O)CS(=O)(=O)C2C(OC)C(=O)N12 (stereo not shown) [R1=OCH3, M=CH2OCOCH3, B=OCH3, Q=H] |  | IC50: 240 nM
COC(=O)c1cccc(COC(=O)C2=C(C)CS(=O)(=O)C3C(OC)C(=O)N23)c1 (stereo not shown) | 733 nM | 
COC1C(=O)N2C(C(=O)OC(C)(C)C)=C(CSc3nnc(C)s3)CS(=O)(=O)C12 (stereo not shown) [R1=OCH3, M=drawing 42, B=OtBu, Q=H] |  | IC50: 2230 nM
COCC1=C(C(=O)OC(C)(C)C)N2C(=O)[C@H](OC)C2S(=O)(=O)C1 (stereo partly shown) [R1=OCH3, M=CH2OCH3, B=OtBu, Q=H] |  | IC50: 864 nM
COC1C(=O)N2C(C(=O)OC(C)(C)C)=C(COC(C)=O)C(CS(=O)(=O)c3ccccc3)S(=O)(=O)C12 (stereo not shown) | 37.8 nM | 
COC1C(=O)N2C(C(=O)OC(C)(C)C)=C(CSc3nc4ccccc4s3)CS(=O)(=O)C12 (stereo not shown) [R1=OCH3, M=drawing 43, B=OtBu, Q=H] | 6220 nM | 

SMILES | IC50 [2] | also measured
CO[C@H]1C(=O)N2C(C(=O)OCc3ccccc3)=C(COC(C)=O)CS(=O)(=O)[C@H]12 [R1=OCH3, M=CH2OCOCH3, B=OCH2.phi., Q=H, Benzyl 3-acetyloxymethyl-7α-methoxy-8-oxo-5-thia-1-azabicyclo[4.2.0]oct-2-ene-2-carboxylate-5,5-dioxide] |  | IC50: 73.3 nM
CCC1C(=O)N2C(C(=O)OC(C)(C)C)=C(COC(=O)CCC(=O)O)CS(=O)(=O)C12 (stereo not shown) [R1=C2H5, M=CH2OCOCH2CH2COOH, B=OtBu, Q=H] | 1850 nM | 
CCOC(=O)COC(=O)C1=C(C)CS(=O)(=O)C2C(OC)C(=O)N12 (stereo not shown) [R1=OCH3, M=CH3, B=OCH2COOC2H5, Q=H] | 1440 nM | 
CO[C@H]1C(=O)N2C(C(=O)OC(C)(C)C)=C(CCl)CS(=O)(=O)C12 (stereo partly drawn) [R1=OCH3, M=CH2Cl, B=OtBu, Q=H, t-Butyl 3-chloromethyl-7α-methoxy-8-oxo-5-thia-1-azabicyclo[4.2.0]oct-2-ene-2-carboxylate-5,5-dioxide] |  | ED50 [3]: 0.15 µg/mL (≈ 0.426 µM)
COC1C(=O)N2C(C(=O)OC(C)(C)C)=C(CSc3nnnn3C)CS(=O)(=O)C12 (stereo not shown) [R1=OCH3, M=drawing 45, B=OtBu, Q=H] | 1390 nM | 
COC1C(=O)N2C(C(=O)OC(C)(C)C)=C(COC(C)=O)C(Cc3ccccc3)S(=O)(=O)C12 (stereo not shown) [R1=OCH3, M=CH2OCOCH3, B=OtBu, Q=CH2.phi.] | 32200 nM | 
CC(=O)OCC1=C(C(=O)OC(C)(C)C)N2C(=O)C(OC=O)C2S(=O)(=O)C1 (stereo not shown) [R1=drawing 36, M=CH2OCOCH3, B=OtBu, Q=H] | 385 nM | 
COC1C(=O)N2C(C(=O)OC(C)(C)C)=C(COC(=O)c3ccccc3C(=O)O)CS(=O)(=O)C12 (stereo not shown) | 1250 nM | 
CC(=O)OCC1=C(C(=O)OC(C)(C)C)N2C(=O)C(F)(F)C2S(=O)(=O)C1 (stereo not shown) |  | IC50 [1]: 131 nM
CNCC(=O)OCC1=C(C(=O)OC(C)(C)C)N2C(=O)C(OC)C2S(=O)(=O)C1 (stereo not shown) [R1=OCH3, M=CH2OCOCH2NHCH3, B=OtBu, Q=H] | 742 nM | 
COC1C(=O)N2C(C(=O)OC(C)(C)C)=C(COC(=O)CN(C)C(=O)OC(C)(C)C)CS(=O)(=O)C12 (stereo not shown) [R1=OCH3, M=drawing 38, B=OtBu, Q=H] | 198 nM | 
CCOC(=O)OCC1=C(C(=O)OC(C)(C)C)N2C(=O)C(OC)C2S(=O)(=O)C1 (stereo not shown) [R1=OCH3, M=CH2OCOOC2H5, B=OtBu, Q=H] | 740 nM | 
CO[C@H]1C(=O)N2C(C(=O)OC(C)(C)C)=C(C[S+]([O-])c3ccccc3)CS(=O)(=O)C12 (single isomer, unassigned) [R1=OCH3, M=CH2SO.phi., B=OtBu, Q=H, t-Butyl 3-phenylsulfinylmethyl-7α-methoxy-8-oxo-5-thia-1-azabicyclo[4.2.0]oct-2-ene-2-carboxylate-5,5-dioxide] |  | IC50: 181 nM
CCC1C(=O)N2C(C(=O)OC(C)(C)C)=C(COC(=O)NC(C)C(=O)O)CS(=O)(=O)C12 (stereo not shown) [R1=C2H5, M=drawing 31, B=OtBu, Q=H] | 2240 nM | 
CC(=O)OCC1=C(C(=O)OC(C)(C)C)N2C(=O)C(Oc3ccccc3)C2S(=O)(=O)C1 (stereo not shown) [R1=OC6H5, M=CH2OCOCH3, B=OtBu, Q=H] |  | IC50: 1830 nM
COC1C(=O)N2C(C(=O)N3CCC[C@H]3C(=O)O)=C(COC(C)=O)CS(=O)(=O)C12 (stereo partly shown) [R1=OCH3, M=CH2OCOCH3, B=drawing 33, Q=H] | 12000 nM | 
C=C1C(COC(C)=O)=C(C(=O)OC(C)(C)C)N2C(=O)[C@H](OC)[C@H]2S1(=O)=O [R1=OCH3, M=CH2OCOCH3, B=OtBu, Q=CH2, t-Butyl 3-acetyloxymethyl-7α-methoxy-4-methylene-8-oxo-5-thia-1-azabicyclo [4.2.0]oct-2-ene-2-carboxylate-5,5-dioxide] | 77.4 nM | 
CO[C@H]1C(=O)N2C(C(=O)OC(C)(C)C)=C(CSc3ccccc3)CS(=O)(=O)C12 (stereo partly drawn) [R1=OCH3, M=CH2S.phi., B=OtBu, Q=H, t-Butyl 3-phenylthiomethyl-7α-methoxy-8-oxo-5-thia-1-azabicyclo[4.2.0]oct-2-ene-2-carboxylate-5,5-dioxide] |  | ED50 [3]: 0.4 µg/mL (≈ 0.94 µM)
CO[C@H]1C(=O)N2C(C(=O)NCC(=O)OC(C)(C)C)=C(COC(C)=O)CS(=O)(=O)[C@H]12 [R1=OCH3, M=CH2OCOCH3, B=NHCH2COOtBu, Q=H, N-(t-Butoxycarbonyl)methyl 3-acetyloxymethyl-7α-methoxy-8-oxo-5-thia-1-azabicyclo[4.2.0]oct-2-ene-2-carboxamide-5,5 dioxide] | 2080 nM | 
COC1C(=O)N2C(C(=O)OC(C)(C)C)=C(CSc3nccn3C)CS(=O)(=O)C12 (stereo not shown) [R1=OCH3, M=drawing 41, B=OtBu, Q=H] |  | IC50: 2330 nM
